{"source": "paper PMC8346516", "about": "(Nature Communications, 2021)", "biological_target": "T1, Lsm12 (Homo sapiens, UniProt Q3MHD2)", "T1 construct": "hLsm12-HisE.coli: 6×His-tagged human Lsm12 (195 residues in full length) purified from E. coli", "T1 sequence (Q3MHD2 whole entry)": "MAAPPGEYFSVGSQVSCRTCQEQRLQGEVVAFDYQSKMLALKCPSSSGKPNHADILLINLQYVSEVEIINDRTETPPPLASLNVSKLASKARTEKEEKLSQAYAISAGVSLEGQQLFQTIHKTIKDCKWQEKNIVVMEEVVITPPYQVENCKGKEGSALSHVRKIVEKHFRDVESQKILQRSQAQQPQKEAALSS", "experiment": "competition […]-NAADP radioligand binding with purified protein; also competition pull-down with immobilized NAADP (Kd […])"}
{"smiles": "Nc1ncnc2c1ncn2[C@@H]1O[C@H](COP(=O)(O)OP(=O)(O)OC[C@H]2O[C@@H]([n+]3cccc(C(=O)[O-])c3)[C@H](O)[C@@H]2O)[C@@H](O)[C@H]1OP(=O)(O)O", "note": "[NAADP]", "values": [{"measurement": "Kd", "result": "~20", "unit": "nM"}]}
